This note sets out measurements from ChEMBL document CHEMBL4007384, “Synthesis and optimization of furano[3,2-d]pyrimidines as selective spleen tyrosine kinase (Syk) inhibitors” (Bioorg Med Chem Lett, 2016).

One test concerns the target T1, Activin receptor type-1 (Homo sapiens, UniProt Q04771).
T1 sequence (Q04771 whole entry): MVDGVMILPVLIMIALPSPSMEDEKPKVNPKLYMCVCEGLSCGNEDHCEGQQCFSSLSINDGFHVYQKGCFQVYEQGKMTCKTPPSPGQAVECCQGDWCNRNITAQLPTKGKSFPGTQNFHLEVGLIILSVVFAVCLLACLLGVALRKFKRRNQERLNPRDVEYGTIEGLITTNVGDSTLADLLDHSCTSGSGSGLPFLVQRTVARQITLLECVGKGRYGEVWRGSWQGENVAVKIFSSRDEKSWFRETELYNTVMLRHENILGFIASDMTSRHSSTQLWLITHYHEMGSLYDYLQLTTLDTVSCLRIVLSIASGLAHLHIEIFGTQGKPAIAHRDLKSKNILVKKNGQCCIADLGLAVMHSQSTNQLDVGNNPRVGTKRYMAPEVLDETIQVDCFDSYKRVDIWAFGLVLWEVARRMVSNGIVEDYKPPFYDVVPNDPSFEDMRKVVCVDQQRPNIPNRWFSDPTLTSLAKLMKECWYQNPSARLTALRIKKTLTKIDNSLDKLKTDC
Kind of test: Inhibition of ACVR1 (unknown origin) after 60 mins by TR-FRET assay. A general note: TR-FRET usually uses a lanthanide donor and a delayed reading to cut background.

In the next test the target is T2, Aurora kinase A (Homo sapiens, UniProt O14965).
T2 sequence (O14965 whole entry): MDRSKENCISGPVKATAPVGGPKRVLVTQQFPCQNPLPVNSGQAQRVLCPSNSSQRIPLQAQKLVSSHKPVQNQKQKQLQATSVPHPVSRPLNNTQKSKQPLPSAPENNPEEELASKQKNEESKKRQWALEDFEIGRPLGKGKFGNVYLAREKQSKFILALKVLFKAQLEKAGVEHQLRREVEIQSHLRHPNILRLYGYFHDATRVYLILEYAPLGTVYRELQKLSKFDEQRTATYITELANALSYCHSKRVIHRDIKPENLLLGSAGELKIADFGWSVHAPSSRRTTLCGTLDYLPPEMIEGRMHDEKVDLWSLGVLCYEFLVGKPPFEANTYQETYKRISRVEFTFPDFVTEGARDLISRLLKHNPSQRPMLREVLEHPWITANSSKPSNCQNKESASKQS
Put plainly: Inhibition of AURKA (unknown origin) after 60 mins by TR-FRET assay.

In test [1] the target is Hepatocyte growth factor receptor (Homo sapiens, UniProt P08581). Put plainly: Inhibition of c-MET (unknown origin) after 60 mins by TR-FRET assay.
In test [2] the target is Dual specificity tyrosine-phosphorylation-regulated kinase 1A (Homo sapiens, UniProt Q13627). Kind of test: Inhibition of DYRK1A (unknown origin) after 60 mins by TR-FRET assay.
For test [3], the target named is Fibroblast growth factor receptor 1 (Homo sapiens, UniProt P11362). Put plainly: Inhibition of FGFR1 (unknown origin) after 60 mins by TR-FRET assay.
Test [4] deals with Insulin-like growth factor 1 receptor (Homo sapiens, UniProt P08069). Put plainly: Inhibition of IGF1R (unknown origin) after 60 mins by TR-FRET assay.
Test [5] has as its target Mitogen-activated protein kinase 9 (Homo sapiens, UniProt P45984). Put plainly: Inhibition of JNK2 (unknown origin) after 60 mins by TR-FRET assay.
The target of test [6] is Vascular endothelial growth factor receptor 2 (Homo sapiens, UniProt P35968). Put plainly: Inhibition of KDR (unknown origin) after 60 mins by TR-FRET assay.
Test [7] concerns the target Leukocyte tyrosine kinase receptor (Homo sapiens, UniProt P29376). Put plainly: Inhibition of LTK (unknown origin) after 60 mins by TR-FRET assay.
In test [8] the target is Platelet-derived growth factor receptor beta (Homo sapiens, UniProt P09619). Put plainly: Inhibition of PDGFRB (unknown origin) after 60 mins by TR-FRET assay.
Test [9] deals with Serine/threonine-protein kinase pim-1 (Homo sapiens, UniProt P11309). Put plainly: Inhibition of PIM1 (unknown origin) after 60 mins by TR-FRET assay.
Test [10] has as its target Proto-oncogene tyrosine-protein kinase receptor Ret (Homo sapiens, UniProt P07949). Put plainly: Inhibition of RET (unknown origin) after 60 mins by TR-FRET assay.
Test [11] deals with BDNF/NT-3 growth factors receptor (Homo sapiens, UniProt Q16620). Put plainly: Inhibition of TrkB (unknown origin) after 60 mins by TR-FRET assay.
Test [12] has as its target T3, Tyrosine-protein kinase receptor TYRO3 (Homo sapiens, UniProt Q06418).
T3 sequence (Q06418 whole entry): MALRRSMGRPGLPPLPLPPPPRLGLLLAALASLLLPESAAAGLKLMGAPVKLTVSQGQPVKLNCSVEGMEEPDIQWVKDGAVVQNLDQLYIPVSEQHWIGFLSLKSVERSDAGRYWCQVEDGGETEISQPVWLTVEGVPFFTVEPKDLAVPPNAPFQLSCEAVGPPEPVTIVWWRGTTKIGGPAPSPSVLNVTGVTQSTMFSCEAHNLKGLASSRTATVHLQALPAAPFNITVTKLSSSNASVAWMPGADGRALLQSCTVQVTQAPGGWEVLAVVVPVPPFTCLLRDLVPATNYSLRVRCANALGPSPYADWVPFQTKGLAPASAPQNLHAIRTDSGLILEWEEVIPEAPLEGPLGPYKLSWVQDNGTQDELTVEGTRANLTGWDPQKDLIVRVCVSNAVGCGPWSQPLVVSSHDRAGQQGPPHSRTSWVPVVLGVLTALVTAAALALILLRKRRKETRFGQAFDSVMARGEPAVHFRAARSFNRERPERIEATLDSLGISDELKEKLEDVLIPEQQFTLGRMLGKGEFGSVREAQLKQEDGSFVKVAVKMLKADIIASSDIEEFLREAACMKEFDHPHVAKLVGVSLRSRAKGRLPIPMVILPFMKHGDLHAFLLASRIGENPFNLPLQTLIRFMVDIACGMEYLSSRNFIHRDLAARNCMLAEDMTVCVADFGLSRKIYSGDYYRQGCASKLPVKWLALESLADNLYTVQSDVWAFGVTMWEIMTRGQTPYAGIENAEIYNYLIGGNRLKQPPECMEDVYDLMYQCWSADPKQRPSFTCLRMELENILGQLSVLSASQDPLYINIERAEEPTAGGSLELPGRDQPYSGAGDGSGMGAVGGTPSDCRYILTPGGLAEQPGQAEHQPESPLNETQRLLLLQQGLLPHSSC
Kind of test: Inhibition of TYRO3 (unknown origin) after 60 mins by TR-FRET assay.

Test [13] addresses Tyrosine-protein kinase SYK (Homo sapiens, UniProt P43405).
Description: Inhibition of Syk in human Ramos B cells assessed as decrease in intracellular calcium flux measured for 3.5 mins by calcium-5 dye based FLIPR assay
For another test, the target named is MAP kinase p38 (Homo sapiens, UniProt O15264+Q15759+Q16539+P53778). Put plainly: Inhibition of p38 (unknown origin) after 60 mins by TR-FRET assay.

Sequence of Insulin-like growth factor 1 receptor (P08069 31-736 limits assumed): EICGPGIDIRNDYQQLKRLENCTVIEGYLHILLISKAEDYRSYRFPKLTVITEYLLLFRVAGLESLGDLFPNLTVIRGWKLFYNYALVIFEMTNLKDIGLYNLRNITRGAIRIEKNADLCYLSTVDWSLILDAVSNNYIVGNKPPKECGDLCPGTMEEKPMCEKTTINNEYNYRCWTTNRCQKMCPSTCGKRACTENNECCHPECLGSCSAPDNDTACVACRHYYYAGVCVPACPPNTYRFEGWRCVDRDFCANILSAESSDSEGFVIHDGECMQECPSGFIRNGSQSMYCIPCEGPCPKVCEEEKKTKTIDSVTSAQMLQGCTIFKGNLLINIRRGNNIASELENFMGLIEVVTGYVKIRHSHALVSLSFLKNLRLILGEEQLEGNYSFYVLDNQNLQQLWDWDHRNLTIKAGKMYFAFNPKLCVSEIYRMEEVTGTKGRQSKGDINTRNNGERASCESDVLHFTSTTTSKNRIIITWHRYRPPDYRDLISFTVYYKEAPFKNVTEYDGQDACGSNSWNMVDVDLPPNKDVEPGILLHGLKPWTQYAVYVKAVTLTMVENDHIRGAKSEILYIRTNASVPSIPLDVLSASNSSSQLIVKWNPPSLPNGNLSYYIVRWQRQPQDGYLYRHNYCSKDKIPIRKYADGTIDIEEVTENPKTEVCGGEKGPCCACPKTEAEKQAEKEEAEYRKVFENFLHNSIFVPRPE
Sequence of Insulin-like growth factor 1 receptor (P08069 741-1367 limits assumed): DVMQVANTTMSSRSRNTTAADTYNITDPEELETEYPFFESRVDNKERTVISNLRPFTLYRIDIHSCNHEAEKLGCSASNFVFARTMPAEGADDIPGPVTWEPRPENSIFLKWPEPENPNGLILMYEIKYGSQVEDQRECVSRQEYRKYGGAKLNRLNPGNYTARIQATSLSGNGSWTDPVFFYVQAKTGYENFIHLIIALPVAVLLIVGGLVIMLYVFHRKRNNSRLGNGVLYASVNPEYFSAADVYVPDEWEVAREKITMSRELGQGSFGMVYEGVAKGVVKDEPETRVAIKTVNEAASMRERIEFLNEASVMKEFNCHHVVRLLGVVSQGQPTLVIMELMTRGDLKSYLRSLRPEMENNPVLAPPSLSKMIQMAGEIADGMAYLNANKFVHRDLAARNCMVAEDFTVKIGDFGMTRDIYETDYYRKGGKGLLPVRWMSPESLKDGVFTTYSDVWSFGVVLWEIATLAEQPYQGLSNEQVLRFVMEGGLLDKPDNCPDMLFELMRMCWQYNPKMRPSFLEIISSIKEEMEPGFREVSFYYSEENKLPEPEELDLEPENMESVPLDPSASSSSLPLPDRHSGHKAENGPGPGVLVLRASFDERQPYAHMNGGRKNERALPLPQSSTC
Sequence of Proto-oncogene tyrosine-protein kinase receptor Ret (P07949 whole entry): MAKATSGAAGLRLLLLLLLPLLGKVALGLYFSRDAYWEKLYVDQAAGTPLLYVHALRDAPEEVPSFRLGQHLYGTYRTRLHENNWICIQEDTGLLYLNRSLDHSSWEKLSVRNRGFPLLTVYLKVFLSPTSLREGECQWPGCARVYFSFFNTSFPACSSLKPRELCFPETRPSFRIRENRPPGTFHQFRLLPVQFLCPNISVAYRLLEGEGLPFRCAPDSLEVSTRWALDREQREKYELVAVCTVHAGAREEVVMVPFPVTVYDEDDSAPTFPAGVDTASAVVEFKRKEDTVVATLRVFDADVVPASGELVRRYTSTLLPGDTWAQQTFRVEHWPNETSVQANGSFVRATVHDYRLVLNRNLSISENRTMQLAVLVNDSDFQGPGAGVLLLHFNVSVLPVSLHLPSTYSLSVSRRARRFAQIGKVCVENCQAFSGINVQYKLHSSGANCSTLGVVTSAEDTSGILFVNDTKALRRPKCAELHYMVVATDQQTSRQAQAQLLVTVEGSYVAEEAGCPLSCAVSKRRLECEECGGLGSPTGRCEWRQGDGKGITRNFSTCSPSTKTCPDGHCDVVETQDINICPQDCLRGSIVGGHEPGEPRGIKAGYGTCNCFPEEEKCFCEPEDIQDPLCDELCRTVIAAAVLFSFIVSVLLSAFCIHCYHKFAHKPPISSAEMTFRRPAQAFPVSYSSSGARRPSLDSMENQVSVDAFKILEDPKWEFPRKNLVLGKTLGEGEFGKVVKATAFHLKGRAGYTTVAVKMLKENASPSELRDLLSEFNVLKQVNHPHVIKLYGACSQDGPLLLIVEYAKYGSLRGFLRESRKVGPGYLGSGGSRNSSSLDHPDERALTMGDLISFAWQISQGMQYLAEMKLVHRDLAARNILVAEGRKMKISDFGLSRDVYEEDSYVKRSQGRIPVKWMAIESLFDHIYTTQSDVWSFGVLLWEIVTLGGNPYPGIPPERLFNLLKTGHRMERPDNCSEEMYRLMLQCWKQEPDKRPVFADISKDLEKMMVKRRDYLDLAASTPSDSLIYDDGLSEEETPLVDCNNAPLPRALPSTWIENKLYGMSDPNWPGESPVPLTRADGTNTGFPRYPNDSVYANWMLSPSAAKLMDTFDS
Sequence of Serine/threonine-protein kinase pim-1 (P11309 whole entry): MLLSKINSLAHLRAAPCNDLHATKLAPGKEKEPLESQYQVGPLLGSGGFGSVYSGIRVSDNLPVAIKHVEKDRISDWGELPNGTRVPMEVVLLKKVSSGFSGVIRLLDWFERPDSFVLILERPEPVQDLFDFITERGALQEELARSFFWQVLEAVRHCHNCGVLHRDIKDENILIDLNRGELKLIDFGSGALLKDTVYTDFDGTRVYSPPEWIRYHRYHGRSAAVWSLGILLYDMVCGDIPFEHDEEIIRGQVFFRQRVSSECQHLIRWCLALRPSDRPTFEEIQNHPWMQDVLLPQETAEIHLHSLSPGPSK
Sequence of Leukocyte tyrosine kinase receptor (P29376 whole entry): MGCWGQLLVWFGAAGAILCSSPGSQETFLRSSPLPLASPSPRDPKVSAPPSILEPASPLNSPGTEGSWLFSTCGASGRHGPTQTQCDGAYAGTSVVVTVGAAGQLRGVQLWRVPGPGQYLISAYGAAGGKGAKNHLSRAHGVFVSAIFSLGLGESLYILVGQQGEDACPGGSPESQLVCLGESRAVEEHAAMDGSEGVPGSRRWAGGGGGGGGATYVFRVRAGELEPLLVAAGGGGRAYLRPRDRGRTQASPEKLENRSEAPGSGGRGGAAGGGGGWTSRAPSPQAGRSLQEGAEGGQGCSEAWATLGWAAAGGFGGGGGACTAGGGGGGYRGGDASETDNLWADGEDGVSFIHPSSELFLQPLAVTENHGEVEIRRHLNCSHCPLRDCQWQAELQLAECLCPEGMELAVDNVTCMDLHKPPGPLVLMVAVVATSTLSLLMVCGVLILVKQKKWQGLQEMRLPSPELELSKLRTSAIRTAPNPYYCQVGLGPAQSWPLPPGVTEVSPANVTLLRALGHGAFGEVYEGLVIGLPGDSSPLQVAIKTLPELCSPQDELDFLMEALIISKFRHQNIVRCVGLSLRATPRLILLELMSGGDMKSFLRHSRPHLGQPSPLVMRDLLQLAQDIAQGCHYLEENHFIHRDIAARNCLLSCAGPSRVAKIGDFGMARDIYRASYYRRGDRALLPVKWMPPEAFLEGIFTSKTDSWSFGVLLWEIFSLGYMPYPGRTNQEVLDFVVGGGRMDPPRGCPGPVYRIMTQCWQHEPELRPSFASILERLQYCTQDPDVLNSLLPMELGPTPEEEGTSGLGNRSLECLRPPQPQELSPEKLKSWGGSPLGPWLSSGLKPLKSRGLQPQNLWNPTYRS
Sequence of BDNF/NT-3 growth factors receptor (Q16620 whole entry): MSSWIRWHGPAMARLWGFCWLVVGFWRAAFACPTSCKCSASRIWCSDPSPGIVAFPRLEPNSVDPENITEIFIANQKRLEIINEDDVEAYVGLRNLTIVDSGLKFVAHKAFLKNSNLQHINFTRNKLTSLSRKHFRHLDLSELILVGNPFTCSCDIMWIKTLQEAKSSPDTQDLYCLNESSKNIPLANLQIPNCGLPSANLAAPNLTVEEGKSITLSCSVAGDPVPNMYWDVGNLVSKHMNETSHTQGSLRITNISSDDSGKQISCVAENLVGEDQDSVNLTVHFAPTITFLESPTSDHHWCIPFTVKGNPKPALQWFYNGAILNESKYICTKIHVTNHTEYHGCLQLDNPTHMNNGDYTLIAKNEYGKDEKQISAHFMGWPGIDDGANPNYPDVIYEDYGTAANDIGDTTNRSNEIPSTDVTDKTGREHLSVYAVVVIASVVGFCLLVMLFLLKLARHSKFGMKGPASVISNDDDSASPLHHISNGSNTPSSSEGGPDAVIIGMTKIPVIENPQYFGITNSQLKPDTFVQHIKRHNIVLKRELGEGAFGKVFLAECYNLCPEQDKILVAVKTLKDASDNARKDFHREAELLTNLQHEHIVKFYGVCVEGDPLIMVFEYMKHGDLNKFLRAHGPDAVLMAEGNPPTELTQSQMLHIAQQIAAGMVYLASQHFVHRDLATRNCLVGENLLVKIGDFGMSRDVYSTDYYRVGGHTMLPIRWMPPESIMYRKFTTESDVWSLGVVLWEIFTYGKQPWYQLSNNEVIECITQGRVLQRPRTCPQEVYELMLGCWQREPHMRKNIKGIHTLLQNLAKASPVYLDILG
Sequence of Mitogen-activated protein kinase 9 (P45984 whole entry): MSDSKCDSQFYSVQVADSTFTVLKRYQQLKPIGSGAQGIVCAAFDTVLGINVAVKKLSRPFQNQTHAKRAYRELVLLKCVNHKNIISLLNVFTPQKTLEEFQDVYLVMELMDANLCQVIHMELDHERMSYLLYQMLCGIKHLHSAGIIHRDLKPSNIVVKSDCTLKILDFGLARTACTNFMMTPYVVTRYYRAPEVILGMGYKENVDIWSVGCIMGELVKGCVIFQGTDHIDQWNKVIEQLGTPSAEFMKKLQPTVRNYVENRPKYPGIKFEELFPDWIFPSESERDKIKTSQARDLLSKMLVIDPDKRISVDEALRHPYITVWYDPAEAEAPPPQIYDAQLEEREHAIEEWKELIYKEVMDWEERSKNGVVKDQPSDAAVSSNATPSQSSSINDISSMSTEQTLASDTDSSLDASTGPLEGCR

For orientation: IC50 means the concentration that inhibits the measured activity by half. Read a low IC50 as greater potency in that assay. The EC50 is the concentration needed to bring the measured effect to its halfway point. With `FC(F)(F)CNc1nc(Nc2ccc(N3CCOCC3)c(Cl)c2)nc2ccoc12`, the IC50 (at Activin receptor type-1; on Aurora kinase A; in test [1]; in test [2]; in [3]; in [4]) was above 10 µM throughout. Further, the half-inhibitory concentration (IC50) in [5] was above 10 µM; in [6], above 10 µM; in test [7], above 10 µM; in test [8], above 10 µM; in test [9] it was above 10 µM; in test [10], 1.51 µM. The values for the half-inhibitory concentration (IC50) in test [11] and in test [12] were 8.34 µM and above 10 µM, respectively. The compound further came in with a concentration giving a half-maximal response (EC50) in test [13] of 0.117 µM.
Turning to `FC(F)(F)CNc1nc(Nc2ccc3cn[nH]c3c2)nc2ccoc12`, the IC50 against Activin receptor type-1 was above 10 µM; at Aurora kinase A it was above 10 µM; in test [1] it was above 10 µM; in test [2] it was 4.86 µM; in [3], above 10 µM; in test [4], above 10 µM. In addition, the 50% inhibitory concentration (IC50) in test [5] was above 10 µM; in test [6], above 10 µM; in test [7], 7.4 µM; against MAP kinase p38, above 10 µM; in [8], above 10 µM; in test [9], 1.36 µM. The IC50 amounted to 3.5 µM in [10] and 3.21 µM in test [12]. The same compound gave a concentration giving a half-maximal response (EC50) in test [13] of 0.235 µM.
As for `Cc1n[nH]c2cc(Nc3nc(NC4CC4)c4occc4n3)ccc12`, the IC50 (against Activin receptor type-1; against Aurora kinase A; in test [1]; in test [2]; in test [3]; in test [4]) was above 10 µM throughout. The IC50 in test [5] was above 10 µM; in test [7], 6.01 µM; on MAP kinase p38 it was above 10 µM; in test [8], above 10 µM; in test [9], above 10 µM; in [11] it was above 10 µM. In [12], this compound displayed a half-inhibitory concentration (IC50) of 4.14 µM.
Take `CC1(C)OCC(=O)Nc2cc(Nc3nc(NCC(F)(F)F)c4occc4n3)ccc21`: the concentration for half-maximal inhibition (IC50) against Activin receptor type-1 was above 10 µM; at Aurora kinase A, 4.05 µM; in test [1], above 10 µM; in test [2], above 10 µM; in [3] it was above 10 µM; in [4] it was 6.02 µM. Moreover, the IC50 was above 10 µM in test [5]; 3.35 µM in [6]; 5.11 µM in test [7]; above 10 µM against MAP kinase p38; 5.19 µM in [8]; above 10 µM in test [9]. For the same compound, the half-maximal inhibitory concentration (IC50) is 0.379 µM in [10], 0.379 µM in test [11] and above 10 µM in [12]. This compound also came in with an EC50 in test [13] of 0.017 µM.
